Test systems include CCRF-CEM; COLO 205; HCC 2998; HL-60; HOP-62; K562; KM12; LOX IMVI; MDA-MB-231; MOLT-4; NCI/ADR-RES; OVCAR-5; SK-OV-3; SN12C; SR; SW-620; TK-10; UO-31; SF-268; RXF 393.
Assay in all cases: NCI anticancer screen, dose series, 48 h

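Assay format: 96-well plates, 48-hour exposure. GI50: concentration for 50% inhibition of growth.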 Activity calls are given as the source filed them. Rule as the data show it: active = GI50 up to about 1.1 µM and inactive = higher.

As for `O=C(O)/C=N/NC(=S)NC1CCCCC1`, the GI50 in the experiment on CCRF-CEM, with COLO 205, with HCC 2998, in the experiment with HL-60, with HOP-62 and in the experiment on K562 was > 100 µM (inactive) in each case. The GI50 with KM12, in the experiment on LOX IMVI, with MDA-MB-231, in the experiment on MOLT-4, in the experiment with NCI/ADR-RES and with OVCAR-5 was > 100 µM (inactive) throughout. The GI50 in the experiment with SK-OV-3, with SN12C, in the experiment on SR, in the experiment with SW-620, with TK-10 and in the experiment on UO-31 was > 100 µM (inactive) throughout.

For the molecule `Cc1cnc2c(c1)C(=O)N(c1ccc(Oc3ccccc3)cc1)S2(=O)=O`, the GI50 in the experiment with CCRF-CEM, with COLO 205, with HCC 2998, with HL-60, in the experiment on HOP-62 and with K562 was > 100 µM (inactive) throughout. In addition, the GI50 with KM12, in the experiment with LOX IMVI, with MDA-MB-231, in the experiment with MOLT-4, in the experiment on NCI/ADR-RES and in the experiment with OVCAR-5 was > 100 µM (inactive) each time. The GI50 with SF-268, in the experiment on SK-OV-3, with SN12C, with SR, with SW-620 and in the experiment with TK-10 was > 100 µM (inactive) throughout. The GI50 in the experiment with UO-31 is > 100 µM (inactive).

For `S=C1NNC(=S)NN1`, the GI50 with CCRF-CEM is 0.342 µM (active); with COLO 205, > 1 µM (active); with HCC 2998, > 1 µM (active); in the experiment with HL-60, > 1 µM (active); in the experiment with HOP-62, 0.292 µM (active); with K562 it was 0.178 µM (active). Further, the GI50 with KM12 was > 1 µM (active); in the experiment on LOX IMVI, 0.18 µM (active); in the experiment on MDA-MB-231, > 1 µM (active); with MOLT-4, 0.258 µM (active); in the experiment on NCI/ADR-RES, > 1 µM (active); with SF-268 it was 0.387 µM (active). Also, the GI50 was > 1 µM (active) in the experiment with SK-OV-3; 0.198 µM (active) in the experiment with SN12C; 0.239 µM (active) in the experiment on SR; 0.218 µM (active) with SW-620; > 1 µM (active) with TK-10; > 1 µM (active) in the experiment on UO-31.

With `C[N+](C)(C)c1ncnc2c1ncn2C1CCCCO1` (stereo unspecified), the GI50 in the experiment on CCRF-CEM, in the experiment with COLO 205, in the experiment on HL-60, in the experiment with HOP-62, with K562 and in the experiment with KM12 was > 100 µM (inactive) each time. The GI50 in the experiment with LOX IMVI, in the experiment with MDA-MB-231, in the experiment with MOLT-4, in the experiment on NCI/ADR-RES, with OVCAR-5 and with RXF 393 was > 100 µM (inactive) throughout. Moreover, the GI50 in the experiment with SF-268, in the experiment with SK-OV-3, with SN12C, in the experiment on SR, in the experiment with SW-620 and in the experiment on TK-10 was > 100 µM (inactive) throughout. Besides, the GI50 in the experiment with UO-31 was > 100 µM (inactive).

Turning to `COC1CC(OC2C(C)OC(OC3C(C)OC(OC4C(C)OC(O[C@H]5CC[C@@]6(C)C(=CC[C@]7(O)[C@@H]6C[C@@H](OC(=O)/C=C/c6ccccc6)[C@@]6(C)[C@]7(O)CC[C@@]6(O)C(C)=O)C5)CC4OC)CC3OC)CC2OC)OC(C)C1O` (stereo partly specified), the GI50 with CCRF-CEM was > 12.5 µM (inactive); in the experiment on COLO 205, > 12.5 µM (inactive); with HCC 2998, > 12.5 µM (inactive); in the experiment with HL-60, 6.75 µM (inactive); with HOP-62 it was > 12.5 µM (inactive); with K562, > 12.5 µM (inactive). The GI50 in the experiment with KM12 was 10.1 µM (inactive); in the experiment on LOX IMVI, > 12.5 µM (inactive); in the experiment on MDA-MB-231, > 12.5 µM (inactive); in the experiment with MOLT-4 it was > 12.5 µM (inactive); with NCI/ADR-RES it was > 12.5 µM (inactive); in the experiment on OVCAR-5 it was > 12.5 µM (inactive). The GI50 in the experiment on SF-268, in the experiment on SK-OV-3, in the experiment on SN12C, in the experiment on SR, in the experiment on SW-620 and in the experiment with TK-10 was > 12.5 µM (inactive) throughout. Moreover, the GI50 in the experiment on UO-31 is 3.11 µM (inactive).

As to `CC(=O)NCCc1c(-c2[nH]c3ccccc3c2CCNC(C)=O)[nH]c2ccccc12`, the GI50 is > 100 µM (inactive) in the experiment on CCRF-CEM; > 100 µM (inactive) in the experiment on COLO 205; > 100 µM (inactive) with HCC 2998; 85.7 µM (inactive) in the experiment with HOP-62; > 100 µM (inactive) with K562; > 100 µM (inactive) in the experiment on LOX IMVI. For the same molecule, the GI50 in the experiment with MDA-MB-231 was 82.4 µM (inactive); with MOLT-4, > 100 µM (inactive); in the experiment on NCI/ADR-RES, 87.1 µM (inactive); with OVCAR-5, 66.7 µM (inactive); with RXF 393, > 100 µM (inactive); in the experiment with SF-268, > 100 µM (inactive). Also, the GI50 was 51.2 µM (inactive) in the experiment on SK-OV-3; > 100 µM (inactive) in the experiment on SN12C; > 100 µM (inactive) in the experiment with SR; > 100 µM (inactive) with SW-620; 92.7 µM (inactive) in the experiment on TK-10; > 100 µM (inactive) with UO-31.

On to `Cc1ccc(-c2cs/c(=N\c3c(C)n(C)n(-c4ccccc4)c3=O)n2CCO)cc1`, for which the GI50 in the experiment on CCRF-CEM was > 100 µM (inactive); in the experiment with HCC 2998, > 100 µM (inactive); in the experiment with HL-60, > 100 µM (inactive); with HOP-62 it was > 100 µM (inactive); in the experiment on K562, 97.3 µM (inactive); in the experiment with KM12, > 100 µM (inactive). Moreover, the GI50 in the experiment on MDA-MB-231 was > 100 µM (inactive); in the experiment on MOLT-4, 87.5 µM (inactive); in the experiment on NCI/ADR-RES, 65.6 µM (inactive); in the experiment with OVCAR-5, > 100 µM (inactive); with RXF 393 it was > 100 µM (inactive); in the experiment with SF-268, > 100 µM (inactive). Also, the GI50 with SK-OV-3, in the experiment with SN12C, in the experiment with SR, with TK-10 and with UO-31 was > 100 µM (inactive) throughout.

`C[Si](C)(C)CNC(=O)OCc1ccccc1`: the GI50 with CCRF-CEM was > 100 µM (inactive); in the experiment on COLO 205, > 100 µM (inactive); with HCC 2998 it was > 100 µM (inactive); in the experiment with HL-60, 57.4 µM (inactive); in the experiment on HOP-62 it was 58.1 µM (inactive); in the experiment on K562 it was 48.9 µM (inactive). Besides, the GI50 in the experiment on KM12 was > 100 µM (inactive); with LOX IMVI, > 100 µM (inactive); in the experiment with MDA-MB-231 it was > 100 µM (inactive); with NCI/ADR-RES, 75 µM (inactive); in the experiment with OVCAR-5 it was > 100 µM (inactive); in the experiment on SF-268, > 100 µM (inactive). In addition, the GI50 is 0.962 µM (active) with SK-OV-3; > 100 µM (inactive) in the experiment on SN12C; 30.6 µM (inactive) in the experiment with SR; > 100 µM (inactive) in the experiment with SW-620; > 100 µM (inactive) in the experiment on TK-10; > 100 µM (inactive) in the experiment on UO-31.

For `Cc1cc(=O)nc(S(=O)(=O)NC(=O)Nc2cccc(Cl)c2)[nH]1`, the GI50 in the experiment with CCRF-CEM was 64.4 µM (inactive); with COLO 205 it was > 100 µM (inactive); in the experiment on HCC 2998 it was > 100 µM (inactive); in the experiment with HOP-62, > 100 µM (inactive); in the experiment on K562, > 100 µM (inactive); with KM12 it was 14.7 µM (inactive). In addition, the GI50 with LOX IMVI was > 100 µM (inactive); with MDA-MB-231 it was > 68.9 µM (inactive); in the experiment with MOLT-4, 32.7 µM (inactive); in the experiment with NCI/ADR-RES, > 100 µM (inactive); with OVCAR-5 it was > 100 µM (inactive); with RXF 393 it was > 71.4 µM (inactive). Moreover, the GI50 in the experiment with SF-268, with SK-OV-3, in the experiment on SN12C, with SR, in the experiment on SW-620 and in the experiment with TK-10 was > 100 µM (inactive) in each case. Also, in the experiment with UO-31, the GI50 was 3.43 µM (inactive).

On to `CC(=O)O[C@H]1CCn2c3c(c(C)c21)C(=O)C(N1CC1)=C(C)C3=O`, for which the GI50 in the experiment on CCRF-CEM is > 10 µM (inactive); with COLO 205, 6.12 µM (inactive); in the experiment with HCC 2998, > 10 µM (inactive); in the experiment on HL-60, > 10 µM (inactive); in the experiment with HOP-62 it was 5.2 µM (inactive); with K562, > 10 µM (inactive). The GI50 in the experiment with KM12, in the experiment on LOX IMVI, with MDA-MB-231, in the experiment on MOLT-4, in the experiment on NCI/ADR-RES and in the experiment on OVCAR-5 was > 10 µM (inactive) each time. Besides, the GI50 is > 10 µM (inactive) with SF-268; > 10 µM (inactive) in the experiment on SK-OV-3; 7.43 µM (inactive) in the experiment with SN12C; > 10 µM (inactive) in the experiment on SR; > 10 µM (inactive) in the experiment on SW-620; > 10 µM (inactive) with TK-10.

As to `Oc1ccc(-c2nc3ccc(Cl)cc3s2)cc1`, the GI50 with CCRF-CEM was 5.35 µM (inactive); in the experiment on COLO 205, 17.7 µM (inactive); with HL-60, 13.8 µM (inactive); in the experiment on K562, 28.2 µM (inactive); with KM12, 16.3 µM (inactive); with LOX IMVI, 21.4 µM (inactive). For the same molecule, the GI50 with MDA-MB-231 is 22.6 µM (inactive); in the experiment with MOLT-4, 26.7 µM (inactive); in the experiment on NCI/ADR-RES it was 23.4 µM (inactive); in the experiment with OVCAR-5, 17.9 µM (inactive); with RXF 393, 19.8 µM (inactive); in the experiment with SF-268 it was 17.2 µM (inactive). Moreover, the GI50 was 20.2 µM (inactive) with SK-OV-3; 19.4 µM (inactive) with SN12C; 23.7 µM (inactive) with SR; 21.1 µM (inactive) in the experiment on SW-620; 20.4 µM (inactive) with TK-10; 14.2 µM (inactive) in the experiment with UO-31.

Values taken from ChEMBL document CHEMBL1201862, “PubChem BioAssay data set” (2004).
